Results taken from US20150352037A1, “ANTI-AGING COMPOSITION FOR VITALIZATION OF RETINOIC ACID RECEPTOR THAT CONTAINS MIXED EXTRACT OF CHINESE MATRIMONY VINE AND PINE NEEDLES AS EFFECTIVE COMPONENT” (Amorepacific Corporation, priority 2011, published 2015).

Key:
Assay type in all cases: cell-based
[1] = target: T1, retinoic acid receptor γ (RAR-γ) (Homo sapiens, UniProt P13631); assay: Retinoic acid receptor γ transcriptional activity, luciferase reporter in transfected CV-1 cells; conditions: monkey kidney epithelial CV-1 cells, 20 h; extracts 100 μg/ml (Example 3: 100 μg/ml of each extract), retinoic acid 1 μM; corrected with β-galactosidase activity; control = 100
T1 construct: expressed in transfected cells; host or cells: monkey kidney epithelial CV-1 cells
T1 sequence (P13631 1-454): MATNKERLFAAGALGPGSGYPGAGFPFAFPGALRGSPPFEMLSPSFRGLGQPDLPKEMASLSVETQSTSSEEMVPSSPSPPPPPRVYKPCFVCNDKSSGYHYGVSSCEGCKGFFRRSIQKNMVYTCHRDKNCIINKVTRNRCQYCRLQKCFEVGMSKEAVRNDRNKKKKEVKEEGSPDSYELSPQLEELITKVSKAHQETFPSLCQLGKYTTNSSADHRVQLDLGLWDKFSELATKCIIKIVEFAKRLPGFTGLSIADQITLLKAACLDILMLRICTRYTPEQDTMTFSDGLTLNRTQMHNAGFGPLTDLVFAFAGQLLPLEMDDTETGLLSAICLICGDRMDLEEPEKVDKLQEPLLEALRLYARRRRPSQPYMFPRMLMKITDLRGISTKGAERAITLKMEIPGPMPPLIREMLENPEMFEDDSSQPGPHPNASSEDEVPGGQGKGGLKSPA
Method: (§1) Using the Lycium chinense extract obtained in Example 1, the pine needle extract obtained in Example 2, and the Lycium chinense extract/pine needle extract mixture (Example 3) obtained by mixing the extract of Example 1 with the extract of Example 2, their effects on retinoic acid receptor α/γ (RAR-α/γ) transcriptional activities were measured in the following manner. As a positive control, retinoic acid known to activate retinoic acid receptor was used.
(§2) First, monkey kidney epithelial CV-1 cells were seeded into a 24-well plate at a concentration of 4×10^4 cells/well and cultured for 12-16 hours. Before transfection, the plate was washed with phosphate buffered saline (PBS), and then the medium was cultured. […] Then, each of the cell lysates was transferred to a cell culture plate (Costar) for a 96-well luminometer, and luciferase activity for each cell lysate was measured using Luciferase Assay System™ kit (Promega Corporation) according to the manufacturer's instruction. […]
(§3) Next, 50 μl of 1 M sodium carbonate (Na2CO3) solution was added to each well, and the absorbance of each well at 415 nm was measured. The efficiency of transformation in each cell lysate was corrected with the β-galactosidase activity measured as described above, and the relative activity of luciferase to the β-galactosidase activity was calculated and compared between Examples.

collagenase = assay: Inhibition of collagenase expression (collagenase production) in human fibroblasts, ELISA absorbance at 405 nm; conditions: 24 h treatment, extracts 100 μg/ml (Example 3: 100 μg/ml of each extract), retinoic acid 1 μM, untreated control = 100
Method: Using the Lycium chinense fruit extract obtained in Example 1, the pine tree extract obtained in Example 2, and a 1:1 (w/w) mixture (Example 3) of a Lycium chinense fruit extract obtained by extracting 100 g of Lycium chinense fruits according to the method of Example 1 and a pine needle extract obtained by extracting 100 g of pine needles according to the method of Example 2, their effects on the inhibition of collagenase expression (collagenase production) were measured in the following manner. As a positive control, retinoic acid known to inhibit collagenase expression was used. […]
Next, the degree of collagenase production in each of the harvested cell cultures was measured using a collagenase measurement device (Amersham Phamasia, USA). […]
The absorbance of the 96-well plate having a yellow color was measured at 405 nm using an absorbance spectrometer, and the expression of collagenase was calculated using the following Equation 1. Herein, the absorbance of an untreated group was used as a control group. That is, the expression of collagenase in the control group was set at 100, and the expression of collagenase in each test group was calculated relative to the control group. […]
wherein A is the absorbance of the cell group treated with each test material, and B is the absorbance of the control group.

[2] = target: T2, retinoic acid receptor α (RAR-α) (Homo sapiens, UniProt P10276); assay: Retinoic acid receptor α transcriptional activity, luciferase reporter in transfected CV-1 cells; conditions: monkey kidney epithelial CV-1 cells, 20 h; extracts 100 μg/ml (Example 3: 100 μg/ml of each extract), retinoic acid 1 μM; corrected with β-galactosidase activity; control = 100
T2 construct: expressed in transfected cells; host or cells: monkey kidney epithelial CV-1 cells
T2 sequence (P10276 1-462): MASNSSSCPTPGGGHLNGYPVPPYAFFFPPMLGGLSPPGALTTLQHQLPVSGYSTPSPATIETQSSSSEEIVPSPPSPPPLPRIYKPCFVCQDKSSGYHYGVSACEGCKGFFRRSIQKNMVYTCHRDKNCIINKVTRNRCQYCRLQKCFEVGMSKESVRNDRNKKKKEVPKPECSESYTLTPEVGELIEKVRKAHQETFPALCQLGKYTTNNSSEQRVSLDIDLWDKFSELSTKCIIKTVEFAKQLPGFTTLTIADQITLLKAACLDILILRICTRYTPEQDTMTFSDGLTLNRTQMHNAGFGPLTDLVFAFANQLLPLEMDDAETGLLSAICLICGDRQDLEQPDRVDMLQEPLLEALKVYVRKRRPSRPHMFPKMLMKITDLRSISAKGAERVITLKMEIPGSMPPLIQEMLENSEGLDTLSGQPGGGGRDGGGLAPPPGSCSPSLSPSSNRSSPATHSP
Method: as §1, §2, §3

For `CC1=C(/C=C/C(C)=C/C=C/C(C)=C/C(=O)O)C(C)(C)CCC1` [Retinoic acid, retinoic acid], the “Relative activity (%) of luciferase (RAR-γ)” value [1] was 385%, the “Collagenase expression (%)” value (collagenase) was 51.3% and the “Relative activity (%) of luciferase (RAR-α)” value [2] was 343%.
